Source: patent publication US20250129334A1, “LINEAGE SPECIFICATION DURING STEM CELL TRANSITION” (Amniotics AB, priority 2021, published 2025)

Key:
[1] = tested on: LT-HSCs; experiment: CFU assay of LT-HSCs sorted from fetal livers of treated embryos; format: in vivo, mice; conditions: DCA-treated embryos vs control and UK5099
Experimental: For fetal liver analysis, pregnant female C57Bl/6xB6.SJL mice were injected intraperitoneally at E9.5 with UK5099 (4 mg/kg) or DCA (200 mg/kg) or PBS (control). Embryos were harvested at E14.5 and individually weighed and processed. Fetal livers were dissected and homogenised in 800 μL ice cold PBS supplemented with 2% fetal bovine serum (FBS) and FL cells were washed in PBS with 2%/FBS. For the differentiated lineage panel, cells were stained with B220 and CD19 (B-cell markers)-PE, CD3e-APC, Ter119-PeCy7 and CD71-FITC and analyzed on a BD FACSARIA III. For the HSC panel, samples were first treated with ammonium chloride solution (STEMCELL Technologies, France) to lyse red blood cells, washed twice in ice cold PBS with 2% FBS, stained with CD3e, B220, Ter119, Gr1 (Lineage)-PeCy5, c-Kit-Efluor780, Sca1-BV421, CD48-FITC, CD150-BV605 and 7-AAD (for dead cell exclusion) and analyzed on a BD FACSARIA III. […] For plating of CFU assays, 100 LT-HSCs were sorted (gating strategy shown in FIG. 11, e) and resuspended in 3.0 mL Methocult M3434 (STEMCELL Technologies, France). Each mixture was divided onto 2 wells of a non-tissue culture treated 6-well plate. Following a 14-day incubation in a humidified incubator at 37° C., 5% CO2, 20% O2, colonies were morphologically distinguished and scored. […] Cells were stained with anti-cKit and anti-CD45 antibodies and analyzed on a BD LSRFortessa. […]

[2] = tested on: EHT cells; experiment: EHT cell subculture with metabolic regulators, flow cytometry; format: cell-based, human; conditions: UK5099 10 μM
Excerpt: The RB9-CB1 human iPSC line (Woods, N.-B. et al. Brief report: efficient generation of hematopoietic precursors and progenitors from human pluripotent stem cell lines. Stem Cells 29, 1158-1164 (2011)) was co-cultured with mouse embryonic fibroblasts (MEFs, Millipore), passaged every six days and processed to form embryoid bodies (EBs) as described previously (Guibentif, C. et al. Single-Cell Analysis Identifies Distinct Stages of Human Endothelial to-Hematopoietic Transition. Cell Reports 19, 10-19 (2017)). The differentiation protocol used in this study was previously described (Ditadi, A. & Sturgeon, C. M. Directed differentiation of definitive hemogenic endothelium and hematopoietic progenitors from human pluripotent stem cells. Methods 101, 65-72 (2016)), however, small modifications were made to induce both primitive and definitive hematopoiesis, as indicated below and in FIG. 6, a. Newly-formed EBs were first kept in SFD medium supplemented with 1 ng/ml Activin A (on days 0-2) and 3 μM CHIR99021 (on day 2 only). At day 3, media was switched to “Day 3-SP34” medium supplemented with 1 ng/ml Activin A (on day 3 only) and 3 μM CHIR99021 (on day 3 only) until day 6. On day 6, media was replaced by “Day 6-SP34” medium, until day 8. In some experiments where indicated, to obtain a higher yield of HSC-like cells, EBs were kept until day 10: in this case, EBs were plated onto Matrigel (8 μg/cm2, Corning)-coated dishes on day 8 and kept until day 10. Media was changed every day, except on days 5 and 7. On day 8 or 10 (as indicated), EBs were singularized with 5-6 rounds of 5-minute incubations with TryPLE Express (Thermo Fisher Scientific). […]

Row | Compound | decrease in the BFU-E to CFU-GM ratio [1] [%] | CD43+GPA+ cell output ([2]; day 3, EHT cells) | decrease in CD43+CD45+ population ([2]; day 6, deriving from EHT cells) [fold]
1 | O=C(O)C(Cl)Cl [DCA, dichloroacetate] | 80 | – | –
2 | N#CC(=Cc1cn(-c2ccccc2)c2ccccc12)C(=O)O [UK5099, 2-Cyano-3-(1-phenyl-1H-indol-3-yl)-2-propenoic acid] | – | absence of bias | 2
